{
  "source": "ChEMBL document CHEMBL4392856",
  "about": "“Synthesis of diphenoxyadamantane alkylamines with pharmacological interest” (Bioorg Med Chem Lett, 2019)",
  "key": {"L6": {"tested_on": "L6", "test": "Cytotoxic activity against rat L6 cells assessed as reduction in cell viability incubated for 6 days by Alamar blue assay", "format": "cell-based", "conditions": "L6, 144 h"}, "[1]": {"tested_on": "Mycobacterium tuberculosis", "test": "Antimycobacterial activity against […] assessed as inhibition of parasite growth incubated for 6 days by REMA method", "format": "functional"}, "Trypanosoma brucei": {"tested_on": "Trypanosoma brucei", "test": "Antitrypanosomal activity against Trypanosoma brucei 427 bloodstream forms assessed as inhibition of parasite growth incubated for 48 hrs by Alamar blue assay", "format": "functional, organism-based", "conditions": "Trypanosoma brucei, 427, 48 h"}, "[2]": {"tested_on": "Mycobacterium tuberculosis", "test": "Antimycobacterial activity against Mycobacterium tuberculosis assessed as inhibition of parasite growth at 1 ug/ml incubated for 6 days by REMA method relative to untreated control", "format": "functional", "conditions": "144 h"}, "[3]": {"tested_on": "Mycobacterium tuberculosis", "test": "Antimycobacterial activity against Mycobacterium tuberculosis H37Rv assessed as inhibition of parasite growth incubated for 6 days by REMA method", "format": "functional", "conditions": "144 h"}},
  "data": [
    {"smiles": "CN1CCN(CCOc2ccc(C3(c4ccc(OCCN5CCN(C)CC5)cc4)C4CC5CC(C4)CC3C5)cc2)CC1", "values": [
      {"measurement": "IC50", "setting": "L6", "value": 0.33, "unit": "µM"},
      {"measurement": "Imax", "setting": "[1]", "value": 100, "unit": "%"},
      {"measurement": "IC50", "setting": "Trypanosoma brucei", "value": 0.051, "unit": "µM"},
      {"measurement": "IC90", "setting": "Trypanosoma brucei", "value": 0.07, "unit": "µM"},
      {"measurement": "inhibition at 1 µg/mL", "setting": "[2]", "value": 0.04, "unit": "%"},
      {"measurement": "MIC", "setting": "[3]", "value": 4.59, "unit": "µM"}
    ]},
    {"smiles": "CCCCCCNCC(O)COc1ccc(C23CC4CC(C2)CC(c2ccc(OCC(O)CNCCCCCC)cc2)(C4)C3)cc1", "note": "(stereo not given)", "values": [
      {"measurement": "IC50", "setting": "L6", "value": 0.45, "unit": "µM"},
      {"measurement": "Imax", "setting": "[1]", "value": 0, "unit": "%"},
      {"measurement": "IC50", "setting": "Trypanosoma brucei", "value": 0.205, "unit": "µM"},
      {"measurement": "IC90", "setting": "Trypanosoma brucei", "value": 0.272, "unit": "µM"},
      {"measurement": "inhibition at 1 µg/mL", "setting": "[2]", "value": 0, "unit": "%"},
      {"measurement": "MIC", "setting": "[3]", "value": 0.084, "unit": "µM"}
    ]},
    {"smiles": "CN(C)CC(O)COc1ccc(C23CC4CC(C2)CC(c2ccc(OCC(O)CN(C)C)cc2)(C4)C3)cc1", "note": "(stereo not given)", "values": [
      {"measurement": "IC50", "setting": "L6", "value": 0.29, "unit": "µM"},
      {"measurement": "IC50", "setting": "Trypanosoma brucei", "value": 0.171, "unit": "µM"},
      {"measurement": "IC90", "setting": "Trypanosoma brucei", "value": 0.235, "unit": "µM"}
    ]},
    {"smiles": "OC(COc1ccc(C23CC4CC(C2)CC(c2ccc(OCC(O)CN5CCCCC5)cc2)(C4)C3)cc1)CN1CCCCC1", "note": "(stereo not given)", "values": [
      {"measurement": "IC50", "setting": "L6", "value": 0.27, "unit": "µM"},
      {"measurement": "Imax", "setting": "[1]", "value": 99, "unit": "%"},
      {"measurement": "IC50", "setting": "Trypanosoma brucei", "value": 0.25, "unit": "µM"},
      {"measurement": "IC90", "setting": "Trypanosoma brucei", "value": 0.292, "unit": "µM"},
      {"measurement": "inhibition at 1 µg/mL", "setting": "[2]", "value": 0.17, "unit": "%"},
      {"measurement": "MIC", "setting": "[3]", "value": 10.4, "unit": "µM"}
    ]},
    {"smiles": "CCCCNCC(O)COc1ccc(C23CC4CC(C2)CC(c2ccc(OCC(O)CNCCCC)cc2)(C4)C3)cc1", "note": "(stereo not given)", "values": [
      {"measurement": "IC50", "setting": "L6", "value": 0.55, "unit": "µM"},
      {"measurement": "Imax", "setting": "[1]", "value": 100, "unit": "%"},
      {"measurement": "IC50", "setting": "Trypanosoma brucei", "value": 0.093, "unit": "µM"},
      {"measurement": "IC90", "setting": "Trypanosoma brucei", "value": 0.11, "unit": "µM"},
      {"measurement": "inhibition at 1 µg/mL", "setting": "[2]", "value": 50, "unit": "%"},
      {"measurement": "MIC", "setting": "[3]", "value": 4.14, "unit": "µM"}
    ]},
    {"smiles": "CN1CCN(CC(O)COc2ccc(C34CC5CC(C3)CC(c3ccc(OCC(O)CN6CCN(C)CC6)cc3)(C5)C4)cc2)CC1", "note": "(stereo not given)", "values": [
      {"measurement": "IC50", "setting": "L6", "value": 0.26, "unit": "µM"},
      {"measurement": "Imax", "setting": "[1]", "value": 95, "unit": "%"},
      {"measurement": "IC50", "setting": "Trypanosoma brucei", "value": 0.176, "unit": "µM"},
      {"measurement": "IC90", "setting": "Trypanosoma brucei", "value": 0.207, "unit": "µM"},
      {"measurement": "inhibition at 1 µg/mL", "setting": "[2]", "value": 5, "unit": "%"},
      {"measurement": "MIC", "setting": "[3]", "value": 20.5, "unit": "µM"}
    ]},
    {"smiles": "OCCN(CCO)CC(O)COc1ccc(C2(c3ccc(OCC(O)CN(CCO)CCO)cc3)C3CC4CC(C3)CC2C4)cc1", "note": "(stereo not given)", "values": [
      {"measurement": "MIC", "setting": "[3]", "value": 24.3, "unit": "µM"}
    ]},
    {"smiles": "CN1CCN(CC(O)COc2ccc(C3(c4ccc(OCC(O)CN5CCN(C)CC5)cc4)C4CC5CC(C4)CC3C5)cc2)CC1", "note": "(stereo not given)", "values": [
      {"measurement": "IC50", "setting": "L6", "value": 0.54, "unit": "µM"},
      {"measurement": "IC50", "setting": "Trypanosoma brucei", "value": 0.114, "unit": "µM"},
      {"measurement": "IC90", "setting": "Trypanosoma brucei", "value": 0.138, "unit": "µM"},
      {"measurement": "MIC", "setting": "[3]", "value": 8.5, "unit": "µM"}
    ]},
    {"smiles": "CC[C@@H](CO)NCCN[C@@H](CC)CO", "note": "[ETHAMBUTOL]", "values": [
      {"measurement": "Imax", "setting": "[1]", "value": 0, "unit": "%"},
      {"measurement": "inhibition at 1 µg/mL", "setting": "[2]", "value": 0, "unit": "%"},
      {"measurement": "MIC", "setting": "[3]", "value": 0.11, "unit": "µM"}
    ]},
    {"smiles": "CSc1ccc(OCc2ncc([N+](=O)[O-])n2C)cc1", "note": "[FEXINIDAZOLE]", "values": [
      {"measurement": "IC50", "setting": "Trypanosoma brucei", "value": 1, "unit": "µM"}
    ]},
    {"smiles": "CO[C@H]1/C=C/O[C@@]2(C)Oc3c(C)c(O)c4c(O)c(c(/C=N/N5CCN(C)CC5)c(O)c4c3C2=O)NC(=O)/C(C)=C\\C=C\\[C@H](C)[C@H](O)[C@@H](C)[C@@H](O)[C@@H](C)[C@H](OC(C)=O)[C@@H]1C", "note": "[RIFAMPIN]", "values": [
      {"measurement": "Imax", "setting": "[1]", "value": 54, "unit": "%"},
      {"measurement": "inhibition at 1 µg/mL", "setting": "[2]", "value": 13, "unit": "%"},
      {"measurement": "MIC", "setting": "[3]", "value": 0.001, "unit": "µM"}
    ]}
  ]
}
